Laboratory results taken from PubChem BioAssay (NCI).
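Five concentrations, 48 hours, 96-well plates. Here, GI50 denotes the concentration required for 50% inhibition of growth. TGI is the concentration that stops growth completely.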

What was measured:
Experiment in all cases: NCI tumour cell line growth inhibition, 48 h
NCI-H23 lung = tested on: NCI-H23 lung
HCT-116 colon = tested on: HCT-116 colon
TK-10 renal = tested on: TK-10 renal
NCI-H226 lung = tested on: NCI-H226 lung
786-0 renal = tested on: 786-0 renal
OVCAR-8 ovarian = tested on: OVCAR-8 ovarian
SNB-19 CNS = tested on: SNB-19 CNS
SK-OV-3 ovarian = tested on: SK-OV-3 ovarian
K-562 leukemia = tested on: K-562 leukemia
HOP-62 NSCLC = tested on: HOP-62 NSCLC

| Compound | GI50 (NCI-H23 lung) [µM] | TGI (NCI-H23 lung) [µM] | GI50 (HCT-116 colon) [µM] | TGI (HCT-116 colon) [µM] | GI50 (TK-10 renal) [µM] | TGI (TK-10 renal) [µM] | GI50 (NCI-H226 lung) [µM] | TGI (NCI-H226 lung) [µM] | GI50 (786-0 renal) [µM] | TGI (786-0 renal) [µM] | GI50 (OVCAR-8 ovarian) [µM] | TGI (OVCAR-8 ovarian) [µM] | GI50 (SNB-19 CNS) [µM] | TGI (SNB-19 CNS) [µM] | GI50 (SK-OV-3 ovarian) [µM] | TGI (SK-OV-3 ovarian) [µM] | GI50 (K-562 leukemia) [µM] | TGI (K-562 leukemia) [µM] | GI50 (HOP-62 NSCLC) [µM] | TGI (HOP-62 NSCLC) [µM] |
| --- | --- | --- | --- | --- | --- | --- | --- | --- | --- | --- | --- | --- | --- | --- | --- | --- | --- | --- | --- | --- |
| CCCCCCCCc1cc(O)ccc1O | 17.3 | 42 | 14.7 | 27.9 | 1.46 | 22.7 | 17.3 | 41.7 | 17.5 | 34.5 | 29.2 | > 100 | 18.5 | 39.9 | 34.8 | > 100 | 14.9 | 67.5 | 25.5 | 60.6 |
| Oc1ccc(O)c(-n2cccn2)c1-n1cccn1 |  | > 100 |  |  |  | > 100 |  |  |  | > 100 |  | > 100 |  | > 100 |  | > 100 |  | > 100 |  | > 100 |
| C=C1C(=O)OC2(C)CCC1CC1OC1(C)CCC=C(C)CCC2O (stereo not drawn) |  | > 100 |  | > 100 |  | > 100 |  | > 100 |  | > 100 |  | > 100 |  | > 100 |  | > 100 |  | > 100 |  |  |
| O/N=C1\C(=C\c2ccc3c(c2)OCCO3)CCCC1C(NO)c1ccc2c(c1)OCCO2 (stereo not drawn) |  |  |  | 40.4 |  | 50.7 |  |  |  | > 100 |  | > 100 |  | > 100 |  | > 100 |  |  |  | 52.3 |
| CC1=C2C3OC(=O)C(C)C3C(O)C[C@@]2(C)C(=O)CC1 (stereo partly drawn) |  |  |  | > 100 |  | > 100 |  | > 100 |  | > 100 |  | > 100 |  | > 100 |  | > 100 |  |  |  | > 100 |
| O=C1C(OC(=O)c2ccccc2)=C(c2ccc(O)cc2)C(=O)C(OC(=O)c2ccccc2)=C1c1ccc(O)cc1 |  | > 100 |  | > 100 |  | > 100 |  | > 100 |  | > 100 |  | > 100 |  | > 100 |  | > 100 |  | > 100 |  |  |
| C[C@@H](C[C@H](CCO)c1ccccc1)c1ccc2ccccc2c1 | 1.6 | 3.38 | 1.36 | 2.67 | 1.62 | 3.12 |  |  | 1.51 | 2.89 | 1.85 | 3.82 | 1.79 | 3.42 | 1.7 | 3.1 | 1.63 | 3.82 | 1.52 | 2.99 |
| COC(=O)C(/C(=N\O)C(=O)Nc1ccc(Br)cc1)c1nc2ccccc2[nH]c1=O (stereo not drawn) |  | > 100 |  | > 100 |  |  |  | 71.9 |  | 90.8 |  | > 100 |  | > 100 |  | > 100 |  | 67 |  | 92.6 |
| CCCC(=O)OC(OC(=O)CCC)c1ccc([N+](=O)[O-])o1 |  | 48.8 |  | 32.8 |  | 53.5 |  |  |  | 36.5 |  | > 100 |  | > 100 |  | > 100 |  | > 100 |  | > 100 |
| CN1C/C(=C\c2ccc(C(=O)O)cc2)C(=O)/C(=C/c2ccc(C(=O)O)cc2)C1 |  | > 100 |  | > 100 |  | > 100 |  | > 100 |  | > 100 |  | > 100 |  |  |  | > 100 |  | > 100 |  | > 100 |
| CCN1CCC(O)(/C=C/c2ccccc2)C(C(=O)/C=C/c2ccccc2)C1 (stereo not drawn) |  | 10.3 |  | 3.08 |  | 7.88 |  | 9.93 |  | 3.32 |  | 4.55 |  | 22.3 |  | 19.7 |  |  |  | 28.4 |
| C#C[C@@H](CCCC)OC(=O)N[C@H](C)c1ccccc1 |  |  |  | > 100 |  | > 100 |  | 82 |  | > 100 |  | > 100 |  | > 100 |  | > 100 |  | > 100 |  | > 100 |
| N#CC(C#N)C(c1ccccc1)c1ccccc1 |  |  |  | > 100 |  | > 100 |  | > 100 |  | > 100 |  | > 100 |  | > 100 |  | > 100 |  | > 100 |  | > 100 |
| CCOC(=O)C(=O)Nc1nc2ccc(C)cc2s1 |  | > 100 |  | > 100 |  |  |  | > 100 |  | > 100 |  | > 100 |  | > 100 |  | > 100 |  | > 100 |  | > 100 |
| COc1ccc(/C=C2/CSC/C(=C/c3ccc(OC)c(OC)c3)C2=O)cc1OC |  | 6.13 |  | 2.28 |  | 29.5 |  | 7.15 |  | 3.56 |  | 2.19 |  | 16.2 |  | 42.6 |  |  |  | 8.72 |
| CC(=O)/C(=C/N1CCN(C(=O)c2ccco2)C1=S)C(=O)c1ccccc1 |  |  | 6.39 | 16.6 | 10.6 | 28.6 |  |  | 11.2 | 25.1 | 8.75 | 24.3 | 16.3 | > 50 | 17.5 | > 50 | 6.66 | 41.6 | 11.7 | 27.7 |
| CC1OC(=O)N2CCC=CC12 (stereo not drawn) |  | > 100 |  | > 100 |  | > 100 |  | > 100 |  | > 100 |  | > 100 |  | > 100 |  | > 100 |  | > 100 |  |  |
| COc1ccc2c(c1)C=CC1C2CC[C@]2(C)C(NC(=O)/C=C/c3ccc(O)c(O)c3)CCC12 (stereo partly drawn) | 16.3 | 38.3 | 4.49 | 17.4 | 2.82 | 10.3 | 15.3 | 41.3 | 2.9 | 15.7 | 14.2 | > 100 | 5.41 | 19.6 |  |  | 13.9 | 49.6 | 1.21 | 7.59 |
| C1CC[N-]CC1.CC(=N\O)/C(C)=N/O.CC(=N\O)/C(C)=N/O.C[CH-]C(C)O.[Co+2] |  |  | 18.2 | 36.7 | 23.8 | 60.4 | 26.2 | 69 | 33.9 | > 100 | 21.2 | 59.6 | 49.6 | > 100 | 89 | > 100 | 19.3 | 45.8 | 21.7 | 85.9 |
| N#C/C(=C1\OC(N)=C(c2ccc(Cl)cc2)C1=O)c1ccc(Cl)cc1 |  | 27.1 |  | 32.4 |  | 41.4 |  |  |  | 29.4 |  | 26.3 |  | 39.6 |  | 89.1 |  | > 100 |  | 33.4 |
| COc1ccc(F)cc1-c1ccnc2[nH]c(C3=CCN(C4CCC(CC(=O)O)CC4)CC3)cc12 (stereo not drawn) | 0.185 | 2.53 | 0.163 | > 100 | 0.344 | > 100 |  |  | 0.219 | 37.3 | 0.288 | > 100 | 0.152 | > 100 | 1.2 | > 100 | 0.316 | > 100 | 0.362 | > 100 |
| CN(C)Cc1cc(C(C)(C)C)cc(CN(C)C)c1O |  | > 100 |  | > 100 |  | > 100 |  |  |  | > 100 |  | > 100 |  | > 100 |  | > 100 |  | > 100 |  | > 100 |
| CCOC(=O)CC(C)C1(C=O)CCCCC1=O (stereo not drawn) |  |  |  | > 100 |  | > 100 |  | > 100 |  | > 100 |  | > 100 |  | > 100 |  | > 100 |  | > 100 |  | > 100 |
| O=C(N/C(=C\c1ccc(F)cc1)c1nc2ccccc2[nH]1)c1ccccc1 |  | > 100 |  | > 100 |  | > 100 |  | > 100 |  | > 100 |  | > 100 |  | > 100 |  | > 100 |  | > 100 |  |  |
| C[C@@H]1Cc2c(ccc3[nH]ncc23)[C@@H](c2ccc(NC3CN(CCCF)C3)cn2)N1CC(F)(F)F |  |  | 14.5 | 28.2 | 17.9 | 44.7 | 39 | > 100 | 14.4 | 28.4 | 23.5 | 69.8 | 28.3 | > 100 | 14.3 | 37.1 | 19.4 | 54.9 | 15.3 | 34.8 |
| C=CCCC(=O)CC(=O)OCc1ccccc1 |  | > 100 |  | > 100 |  | > 100 |  |  |  | > 100 |  | > 100 |  | > 100 |  | > 100 |  | > 100 |  | > 100 |
| O=[N+]([O-])c1ccc2nc(-c3ccc(Cl)cc3)[nH]c2c1 |  | > 100 |  | 32 |  | 72.5 |  | 58 |  | > 100 |  | > 100 |  | 80.1 |  | 60.4 |  |  |  | 40.1 |
| CC/C(C)=C1\CCC(CN(C)C)C1=O (stereo not drawn) |  | 42.9 |  | 31.7 |  | 31.1 |  | > 100 |  | 29.3 |  | 76.1 |  | > 100 |  |  |  | 79.5 |  | > 100 |
| Cc1nc(-n2nc(-c3ccccc3)cc2-c2ccccc2)sc1C(=O)/C=C/c1cccc([N+](=O)[O-])c1 |  | 41.8 |  |  |  | 92.3 |  |  |  | 25.3 |  | > 100 |  | 23.5 |  | > 100 |  | 28.3 |  | 38.1 |
| COC1CC(n2cc(F)c(N)nc2=O)OC1CO (stereo not drawn) |  | > 100 |  |  |  | > 100 |  | > 100 |  | > 100 |  | > 100 |  | > 100 |  | > 100 |  | > 100 |  | > 100 |
